According to ChEMBL document CHEMBL3751808, “Gambogic acid induces apoptotic cell death in T98G glioma cells” (Bioorg Med Chem Lett, 2016):
Calls of active or inactive are those of the source. The calls are words filed in the database; no cut-off is given here.

Key:
[1] = system: T98G; assay: Antiproliferative activity against human T98G cells after 24 hrs by EZ-Tox assay; type: functional, cell-based
[2] = system: T98G; assay: Antiproliferative activity against human T98G cells assessed as cell viability after 72 hrs by MTT assay; type: functional, cell-based
[3] = system: T98G; assay: Induction of apoptosis in human T98G cells assessed as increase of AIF level at 200 to 400 nM after 10 to 24 hrs by Western blot analysis; type: functional, cell-based
[4] = system: T98G; assay: Induction of apoptosis in human T98G cells assessed as increase of cleaved caspase-3 level at 200 to 400 nM after 10 to 24 hrs by Western blot analysis; type: functional, cell-based
[5] = system: T98G; assay: Induction of apoptosis in human T98G cells assessed as increase of cleaved caspase-8 level at 200 to 400 nM after 10 to 24 hrs by Western blot analysis; type: functional, cell-based
[6] = system: T98G; assay: Induction of apoptosis in human T98G cells assessed as decrease of Bcl-2 level at 200 to 400 nM after 10 to 24 hrs by Western blot analysis; type: functional, cell-based
[7] = system: T98G; assay: Induction of apoptosis in human T98G cells assessed as increase of cleaved caspase-9 level at 200 to 400 nM after 10 to 24 hrs by Western blot analysis; type: functional, cell-based
[8] = system: T98G; assay: Induction of apoptosis in human T98G cells assessed as decrease in cell viability at 400 nM after 24 hrs using propidium iodide /Hoechst staining by FACS analysis in presence of NAC (reference value: 2.9%); type: functional
[9] = system: T98G; assay: Induction of apoptosis in human T98G cells assessed as early-stage apoptotic cells at 200 nM after 24 hrs using annexin V/propidium iodide staining by FACS analysis; type: functional
[10] = system: T98G; assay: Induction of apoptosis in human T98G cells assessed as necrotic cells at 400 nM after 24 hrs using annexin V/propidium iodide staining by FACS analysis; type: functional
[11] = system: T98G; assay: Induction of apoptosis in human T98G cells assessed as late-stage apoptotic cells at 200 nM after 24 hrs using annexin V/propidium iodide staining by FACS analysis; type: functional
[12] = system: T98G; assay: Induction of apoptosis in human T98G cells assessed as increase of ROS level at 200 nM after 8 hrs using DCFH-DA staining by FACS analysis in presence of NAC (reference value: 2.4%); type: functional
[13] = system: T98G; assay: Induction of apoptosis in human T98G cells assessed as increase of cytochrome-c protein level at 200 to 400 nM after 10 to 24 hrs by Western blot analysis; type: functional, cell-based
[14] = system: T98G; assay: Induction of apoptosis in human T98G cells assessed as decrease in cell viability after 24 hrs using propidium iodide /Hoechst staining by FACS analysis; type: functional, cell-based
[15] = system: T98G; assay: Induction of apoptosis in human T98G cells assessed as necrotic cells at 200 nM after 24 hrs using annexin V/propidium iodide staining by FACS analysis; type: functional
[16] = system: T98G; assay: Induction of apoptosis in human T98G cells assessed as increase of Bax level at 200 to 400 nM after 10 to 24 hrs by Western blot analysis; type: functional, cell-based
[17] = system: T98G; assay: Induction of apoptosis in human T98G cells assessed as increase of ROS level at 200 nM after 8 hrs using DCFH-DA staining by FACS analysis (reference value: 2.4%); type: functional
[18] = system: T98G; assay: Induction of apoptosis in human T98G cells assessed as decrease in cell viability at 200 nM after 24 hrs using propidium iodide /Hoechst staining by FACS analysis in presence of NAC (reference value: 2.9%); type: functional
[19] = system: T98G; assay: Induction of apoptosis in human T98G cells assessed as decrease in cell viability at 400 nM after 24 hrs using propidium iodide /Hoechst staining by FACS analysis (reference value: 2.9%); type: functional
[20] = system: T98G; assay: Induction of apoptosis in human T98G cells assessed as increase of ROS level at 400 nM after 8 hrs using DCFH-DA staining by FACS analysis in presence of NAC (reference value: 2.4%); type: functional
[21] = system: T98G; assay: Induction of apoptosis in human T98G cells assessed as increase of ROS level at 200 to 400 nM after 10 hrs using DCFH-DA staining by fluorescence microscopic analysis in presence of NAC; type: functional, cell-based
[22] = system: T98G; assay: Induction of apoptosis in human T98G cells assessed as early-stage apoptotic cells at 400 nM after 24 hrs using annexin V/propidium iodide staining by FACS analysis; type: functional
[23] = system: T98G; assay: Induction of apoptosis in human T98G cells assessed as increase of cleaved PARP level at 200 to 400 nM after 10 to 24 hrs by Western blot analysis; type: functional, cell-based
[24] = system: T98G; assay: Induction of apoptosis in human T98G cells assessed as increase of ROS level at 400 nM after 8 hrs using DCFH-DA staining by FACS analysis (reference value: 2.4%); type: functional
[25] = system: T98G; assay: Induction of apoptosis in human T98G cells assessed as late-stage apoptotic cells at 400 nM after 24 hrs using annexin V/propidium iodide staining by FACS analysis; type: functional
[26] = system: T98G; assay: Induction of apoptosis in human T98G cells assessed as increase of ROS level at 200 to 400 nM after 10 hrs using DCFH-DA staining by fluorescence microscopic analysis; type: functional, cell-based
[27] = system: T98G; assay: Induction of apoptosis in human T98G cells assessed as decrease in cell viability at 200 nM after 24 hrs using propidium iodide /Hoechst staining by FACS analysis (reference value: 2.9%); type: functional

## COc1cccc2c1C(=O)c1c(O)c3c(c(O)c1C2=O)C[C@@](O)(C(=O)CO)C[C@@H]3O[C@H]1C[C@H](N)[C@H](O)[C@H](C)O1 [DOXORUBICIN]
[1]
  IC50: 0.5 µM

## COc1cc(/C=C/C(=O)CC(=O)/C=C/c2ccc(O)c(OC)c2)ccc1O [CURCUMIN]
[2]
  IC50: 25 µM
[1]
  IC50: 10 µM

## CC(C)=CCC[C@]1(C)C=Cc2c(O)c3c(c(CC=C(C)C)c2O1)O[C@]12C(=C[C@@H]4C[C@H]1C(C)(C)O[C@@]2(C/C=C(/C)C(=O)O)C4=O)C3=O [GAMBOGIC ACID]
[3]
  Activity: Active
[4]
  Activity: Active
[5]
  Activity: Active
[6]
  Activity: Active
[7]
  Activity: Active
[8]
  Activity: 6%
[9]
  Activity: 32.3%
[10]
  Activity: 27.6%
[11]
  Activity: 8.57%
[12]
  Activity: 2.8%
[13]
  Activity: Active
[14]
  Activity: Dose-dependent effect
[15]
  Activity: 4%
[16]
  Activity: Active
[17]
  Activity: 38.5%
[18]
  Activity: 5.8%
[19]
  Activity: 76.6%
[20]
  Activity: 2.6%
[21]
  Activity: inactive
[22]
  Activity: 12.6%
[23]
  Activity: Active
[24]
  Activity: 36.5%
[25]
  Activity: 13.7%
[26]
  Activity: Active
[27]
  Activity: 33.4%
[1]
  Activity: Dose-dependent effect
  IC50: ≤ 0.3 µM

## O=C(O[C@@H]1Cc2c(O)cc(O)cc2O[C@@H]1c1cc(O)c(O)c(O)c1)c1cc(O)c(O)c(O)c1 [EPIGALOCATECHIN GALLATE]
[1]
  IC50: 166 µM
